# Assay results: ChEMBL document CHEMBL1201862, “PubChem BioAssay data set” (2004)
# The source made the active and inactive calls. Cut-off read from the data, not from the text of the source, for most assays here: actives have a measured IC50 and inactives only a lower limit.
# Legend:
# Format in all cases: functional
# [1] = HEp-2 cell cytotoxicity, dose response, cytotoxicity control for RSV inhibitor project, HTS (AID 2410); conditions: human respiratory syncytial virus
# [2] = biological target: T1, Apoptotic protease-activating factor 1 (Homo sapiens, UniProt O14727)
# T1 sequence (O14727 whole entry): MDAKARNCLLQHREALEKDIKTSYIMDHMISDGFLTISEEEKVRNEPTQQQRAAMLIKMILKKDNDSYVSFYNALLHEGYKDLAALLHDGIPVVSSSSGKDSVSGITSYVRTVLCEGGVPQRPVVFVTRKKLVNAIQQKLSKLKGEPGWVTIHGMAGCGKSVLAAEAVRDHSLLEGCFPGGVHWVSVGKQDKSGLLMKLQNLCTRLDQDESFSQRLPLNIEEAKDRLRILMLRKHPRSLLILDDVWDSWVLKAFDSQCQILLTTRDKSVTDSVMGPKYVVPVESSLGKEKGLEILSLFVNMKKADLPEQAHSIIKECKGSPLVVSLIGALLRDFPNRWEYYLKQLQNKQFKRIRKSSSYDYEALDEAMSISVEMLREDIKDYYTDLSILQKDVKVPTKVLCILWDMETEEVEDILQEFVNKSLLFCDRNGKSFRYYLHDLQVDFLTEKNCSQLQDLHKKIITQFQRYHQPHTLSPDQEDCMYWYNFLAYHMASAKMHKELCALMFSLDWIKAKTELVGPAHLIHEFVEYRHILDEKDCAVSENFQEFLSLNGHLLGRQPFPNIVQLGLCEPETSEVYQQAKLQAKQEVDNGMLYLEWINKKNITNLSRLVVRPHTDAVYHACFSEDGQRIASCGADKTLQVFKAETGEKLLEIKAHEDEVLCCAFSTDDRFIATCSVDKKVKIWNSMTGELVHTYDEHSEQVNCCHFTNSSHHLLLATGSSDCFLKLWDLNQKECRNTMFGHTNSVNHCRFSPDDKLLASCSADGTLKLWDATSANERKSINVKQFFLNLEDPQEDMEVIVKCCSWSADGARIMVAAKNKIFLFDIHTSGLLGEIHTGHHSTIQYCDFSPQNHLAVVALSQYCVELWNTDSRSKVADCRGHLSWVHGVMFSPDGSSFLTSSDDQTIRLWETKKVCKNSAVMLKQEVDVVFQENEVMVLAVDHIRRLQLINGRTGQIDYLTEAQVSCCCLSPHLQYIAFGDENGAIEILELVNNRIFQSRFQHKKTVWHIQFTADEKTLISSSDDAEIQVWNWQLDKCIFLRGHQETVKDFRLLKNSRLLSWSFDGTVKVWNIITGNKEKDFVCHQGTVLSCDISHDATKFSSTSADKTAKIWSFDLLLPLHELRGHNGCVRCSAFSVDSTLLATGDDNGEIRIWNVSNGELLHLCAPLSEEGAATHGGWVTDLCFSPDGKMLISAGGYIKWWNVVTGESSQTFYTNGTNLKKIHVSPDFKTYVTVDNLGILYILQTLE
# [3] = biological target: T2, Ubiquitin-conjugating enzyme E2 N (Homo sapiens, UniProt P61088);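 note: Dose-response confirmation in a TR-FRET assay detecting UBC13-driven polyubiquitin chain formation, inhibition measured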
# T2 sequence (P61088 whole entry): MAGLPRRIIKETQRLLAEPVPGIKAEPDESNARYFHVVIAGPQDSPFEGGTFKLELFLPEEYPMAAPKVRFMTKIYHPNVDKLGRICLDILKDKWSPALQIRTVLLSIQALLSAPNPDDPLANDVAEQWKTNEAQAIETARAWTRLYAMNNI
# [4] = biological target: T3, Sentrin-specific protease 8 (Homo sapiens, UniProt Q96LD8); assay: SENP8 protease inhibitors, SAR follow-up, biochemical, luminescence (AID 504501)
# T3 sequence (Q96LD8 whole entry): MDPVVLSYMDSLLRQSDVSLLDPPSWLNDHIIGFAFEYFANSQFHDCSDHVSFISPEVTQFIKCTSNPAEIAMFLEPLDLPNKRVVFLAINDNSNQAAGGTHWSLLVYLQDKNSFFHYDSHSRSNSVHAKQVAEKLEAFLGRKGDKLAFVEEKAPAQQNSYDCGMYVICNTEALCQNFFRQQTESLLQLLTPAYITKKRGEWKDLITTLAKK
# [5] = biological target: T4, Sentrin-specific protease 6 (Homo sapiens, UniProt Q9GZR1); assay: SAR Analysis of small molecule inhibitors of Sentrin-specific protease 6 (SENP6) using a Luminescent assay. [Related pubchem assays (depositor defined):AID2582, AID2599]
# T4 sequence (Q9GZR1 whole entry): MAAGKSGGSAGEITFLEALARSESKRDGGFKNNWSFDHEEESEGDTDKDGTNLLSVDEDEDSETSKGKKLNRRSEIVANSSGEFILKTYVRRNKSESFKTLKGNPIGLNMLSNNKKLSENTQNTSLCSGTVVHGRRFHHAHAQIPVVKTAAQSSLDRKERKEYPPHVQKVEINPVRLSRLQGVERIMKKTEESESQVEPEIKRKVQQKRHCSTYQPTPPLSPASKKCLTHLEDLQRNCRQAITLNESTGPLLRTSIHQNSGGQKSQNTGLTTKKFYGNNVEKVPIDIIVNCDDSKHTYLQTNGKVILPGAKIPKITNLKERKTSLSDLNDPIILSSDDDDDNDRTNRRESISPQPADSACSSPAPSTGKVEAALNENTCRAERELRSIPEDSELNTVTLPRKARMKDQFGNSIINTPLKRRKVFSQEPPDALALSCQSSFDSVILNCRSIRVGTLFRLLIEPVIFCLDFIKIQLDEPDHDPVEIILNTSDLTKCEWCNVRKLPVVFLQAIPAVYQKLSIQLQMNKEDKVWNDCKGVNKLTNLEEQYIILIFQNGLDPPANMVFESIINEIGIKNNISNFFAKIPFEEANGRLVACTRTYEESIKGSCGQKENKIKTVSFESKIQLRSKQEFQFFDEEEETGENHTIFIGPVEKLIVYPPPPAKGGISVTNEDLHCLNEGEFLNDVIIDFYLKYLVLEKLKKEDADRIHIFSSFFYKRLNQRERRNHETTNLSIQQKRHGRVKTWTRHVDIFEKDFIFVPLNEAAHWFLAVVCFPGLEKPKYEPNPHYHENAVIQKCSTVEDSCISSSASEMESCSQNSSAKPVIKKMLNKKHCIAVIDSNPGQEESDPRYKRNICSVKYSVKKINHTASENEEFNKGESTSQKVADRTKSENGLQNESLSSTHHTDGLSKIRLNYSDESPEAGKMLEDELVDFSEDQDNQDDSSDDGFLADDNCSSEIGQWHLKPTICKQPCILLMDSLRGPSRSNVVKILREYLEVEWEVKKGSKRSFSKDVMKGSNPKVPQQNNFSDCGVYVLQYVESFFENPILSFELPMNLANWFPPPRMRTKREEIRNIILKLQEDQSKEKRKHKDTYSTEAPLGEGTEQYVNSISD
# Caspase-3 = biological target: T5, Caspase-3 (Homo sapiens, UniProt P42574); assay: SAR Analysis of small molecule inhibitors of Sentrin-specific proteases (SENPs) using a Caspase-3 Selectivity assay. [Related pubchem assays (depositor defined):AID2540, AID2599, AID434973, AID489001]
# T5 sequence (P42574 whole entry): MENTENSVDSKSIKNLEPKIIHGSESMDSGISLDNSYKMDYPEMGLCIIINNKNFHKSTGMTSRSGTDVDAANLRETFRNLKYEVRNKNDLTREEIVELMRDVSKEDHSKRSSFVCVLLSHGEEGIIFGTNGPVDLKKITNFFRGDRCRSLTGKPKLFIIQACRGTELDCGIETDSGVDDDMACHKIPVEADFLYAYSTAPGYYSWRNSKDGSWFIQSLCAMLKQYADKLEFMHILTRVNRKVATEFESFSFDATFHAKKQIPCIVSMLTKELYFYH
# [6] = biological target: T6, Sentrin-specific protease 7 (Homo sapiens, UniProt Q9BQF6); assay: SENP7 protease inhibitors, SAR follow-up, biochemical, luminescence (AID 504497)
# T6 sequence (Q9BQF6 whole entry): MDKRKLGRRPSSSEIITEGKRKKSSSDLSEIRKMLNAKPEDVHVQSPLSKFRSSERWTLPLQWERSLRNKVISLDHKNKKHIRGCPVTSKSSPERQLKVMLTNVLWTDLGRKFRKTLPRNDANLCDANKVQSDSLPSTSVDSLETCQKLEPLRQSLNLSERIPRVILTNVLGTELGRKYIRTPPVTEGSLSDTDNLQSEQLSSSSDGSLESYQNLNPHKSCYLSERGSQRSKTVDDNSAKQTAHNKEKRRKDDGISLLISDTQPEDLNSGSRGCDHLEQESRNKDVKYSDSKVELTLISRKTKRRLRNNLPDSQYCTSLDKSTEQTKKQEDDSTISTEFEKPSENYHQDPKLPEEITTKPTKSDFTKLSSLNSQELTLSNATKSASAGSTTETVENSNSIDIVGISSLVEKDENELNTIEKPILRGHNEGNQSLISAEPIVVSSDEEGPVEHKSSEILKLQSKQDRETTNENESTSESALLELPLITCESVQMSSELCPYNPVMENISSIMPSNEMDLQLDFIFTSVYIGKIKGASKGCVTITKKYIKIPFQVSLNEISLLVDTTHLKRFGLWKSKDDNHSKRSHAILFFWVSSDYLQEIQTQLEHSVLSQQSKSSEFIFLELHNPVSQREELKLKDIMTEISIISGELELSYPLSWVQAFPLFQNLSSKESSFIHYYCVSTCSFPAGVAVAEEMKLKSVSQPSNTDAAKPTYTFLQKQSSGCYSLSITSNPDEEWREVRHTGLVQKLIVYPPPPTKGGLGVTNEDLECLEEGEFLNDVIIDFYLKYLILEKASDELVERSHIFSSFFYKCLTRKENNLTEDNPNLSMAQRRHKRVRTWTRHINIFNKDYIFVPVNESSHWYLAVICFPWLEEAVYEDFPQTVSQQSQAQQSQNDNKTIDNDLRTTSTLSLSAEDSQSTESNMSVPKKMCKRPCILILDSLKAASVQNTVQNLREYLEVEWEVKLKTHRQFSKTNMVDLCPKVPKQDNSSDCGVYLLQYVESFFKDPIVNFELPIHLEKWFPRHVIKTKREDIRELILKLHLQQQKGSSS
IC50 [2],IC50 [3],IC50 [5],IC50 (Caspase-3),IC50 [6],Compound,CC50 [1],IC50 [4]
19.2 µM (active),> 20 µM (inactive),–,–,–,COc1ccc(S(=O)(=O)N2CCN(c3ccc4nnc(-c5ccc(F)cc5)n4n3)CC2)cc1,> 50 µM (active),–
–,–,> 99 µM (inactive),> 99 µM (inactive),> 99 µM (inactive),O=C(c1ccc(Cl)s1)N(Cc1cccnc1)c1nc2c(F)cc(F)cc2s1,–,> 99 µM (inactive)
–,–,> 99 µM (inactive),> 99 µM (inactive),39.1 µM (active),Cc1ccc(C(=O)Nc2sc3c(c2C#N)CCCCCC3)o1,–,> 99 µM (inactive)
